According to patent EP0153803A2, “Triazole antifungal agents” (Pfizer Limited, priority 1984, dated 1985):

These compounds were tested on Candida albicans (assay: in vivo protection of mice inoculated with Candida albicans (PD50)). Details: Candida albicans, 48 h, vs. Candida albicans in mice; dose giving 50% protection against lethal effect of the infection, 48 hours observation; route not given.
Procedure: The in vivo evaluation of the compounds can be carried out at a series of dose levels by intraperitoneal or intravenous injection or by oral administration, to mice which are inoculated with a strain of Candida albicans. Activity is based on the survival of a treated group of mice after the death of an untreated group of mice following 48 hours observation.- The dose level at which the compound provides 50% protection (PD50) against the lethal effect of the infection is noted. Using the test method described in the text, the following PD50 values were obtained vs. Candida albicans in mice:-
Compound `CC(C)(n1cncn1)C(O)(c1ccc(Cl)cc1)c1ccc(F)cc1F` (racemic) [Example 4] has an ED50 of 2.3 mg/kg.
`CC(C)(n1cncn1)C(O)(c1ccc(F)cc1)c1ccc(F)cc1F` (racemic) [Example 5] was tested, and the ED50 was 2.2 mg/kg.
Compound `OC(c1ccc(F)cc1F)(c1ccc(F)cc1F)C(F)n1cncn1` (racemic) [Example 11] has an ED50 of less than 1 mg/kg.
`CC(n1cncn1)C(O)(c1ccc(F)cc1)c1ccc(F)cc1F` (single isomer, unassigned) [Example 2] showed an ED50 of less than 1 mg/kg.
`OC(c1ccc(F)cc1)(c1ccc(Cl)cc1Cl)C(F)n1cncn1` (single isomer, unassigned) [Example 9 (diastereomer I)] showed an ED50 of 0.3 mg/kg.
In the case of `OC(c1ccc(Cl)cc1)(c1ccc(Cl)cc1Cl)C(F)n1cncn1` (single isomer, unassigned) [Example 10], the ED50 is reported as 3.2 mg/kg.
`CC(F)(n1cncn1)C(O)(c1ccc(Cl)cc1)c1ccc(F)cc1F` (stereo not drawn) [Example 1, 1-(4-Chlorophenyl)-1-(2,4-difluorophenyl)-2-fluoro-2-(1H-3,2,4-triazol-1-yl)propan-1-ol] showed an ED50 of 0.95 mg/kg.
`CC(C)(n1cncn1)C(O)(c1ccc(Cl)cc1)c1ccc(Cl)cc1` [Example 3] was tested, and the ED50 was less than 1 mg/kg.
With `CC(C)(n1cncn1)C(O)(c1ccc(F)cc1)c1ccc(F)cc1` [Example 6, 1,1-Bis(4-fluorophenyl)-2-methyl-2-(1H-1,2,4-triazol-1-yl)propan-l-ol] the ED50 was 1.6 mg/kg.
Work on `OC(c1ccc(F)cc1)(c1ccc(F)cc1)C(F)n1cncn1` (stereo not drawn) [Example 8, 2-Fluoro-1,1-di-(4-fluorophenyl)-2-(1,2,4-triazol-1-yl)ethanol] yielded an ED50 of 0.3 mg/kg.

Same assay, conditions: vs. Candida albicans in mice; dose giving 50% protection against lethal effect of the infection, 48 hours observation; route not given; 2880 min
For `OC(c1ccc(Cl)cc1)(c1ccc(F)cc1F)C(F)n1cncn1` (single isomer, unassigned) [Example 7 (diastereomer I), 1-(4-Chloroghenyl)-1-(2,4-difiuorophenyl)-2-fiuoro-2-(1H-1,2,4-triazol-l-yl)-ethanol], the PD50 was 1.6 mg/kg.
`OC(c1ccc(Cl)cc1)(c1ccc(F)cc1F)C(F)n1cncn1` (single isomer, unassigned) [Example 7 (diastereomer II), 1-(4-Chloroghenyl)-1-(2,4-difiuorophenyl)-2-fiuoro-2-(1H-1,2,4-triazol-l-yl)-ethanol] showed a PD50 of 0.3 mg/kg.
`OC(c1ccc(F)cc1)(c1ccc(Cl)cc1Cl)C(F)n1cncn1` (single isomer, unassigned) [Example 9 (diastereomer II)] gave a PD50 of 0.5 mg/kg.
`OC(c1ccc(F)cc1)(c1ccc(F)cc1)C(F)n1cncn1` (single isomer, unassigned) [Example 12(+)] was tested, and the PD50 was 0.75 mg/kg.
In the case of `OC(c1ccc(F)cc1)(c1ccc(F)cc1)C(F)n1cncn1` (single isomer, unassigned) [Example 12(-)], the PD50 is reported as 0.2 mg/kg.
